Source: ChEMBL document CHEMBL1201862, “PubChem BioAssay data set” (2004)
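96-well plates; 48 h exposure; 5 concentrations. Endpoints by linear interpolation between flanking doses. Not reached: highest tested concentration assigned. Here, GI50 denotes the concentration required for 50% inhibition of growth.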 Active and inactive are the calls of the source. Cut-off read from the data, not from the text of the source: active = GI50 up to about 1.1 µM and inactive = higher.

Columns and labels:
Experiment in all cases: DTP human tumour cell line panel, 48 h
[1] = system: COLO 205
[2] = system: HT-29
[3] = system: OVCAR-4
[4] = system: LOX IMVI
[5] = system: HOP-92
[6] = system: SK-OV-3
[7] = system: SR
[8] = system: RPMI-8226
[9] = system: HCT-116
[10] = system: UO-31
[11] = system: UACC-62
[12] = system: MDA-N
[13] = system: NCI-H522
[14] = system: SK-MEL-2
[15] = system: NCI-H23
[16] = system: KM12
[17] = system: CAKI-1
[18] = system: Hs-578T
[19] = system: SN12C

SMILES: COc1cc2nc(-c3ccccc3)cc(O)c2cc1OC
- GI50 [1]: 4.2 µM (inactive)
- GI50 [2]: 9.84 µM (inactive)
- GI50 [3]: > 73.3 µM (inactive)
- GI50 [4]: 10.7 µM (inactive)
- GI50 [5]: 33.7 µM (inactive)
- GI50 [6]: 35.6 µM (inactive)
- GI50 [7]: 6 µM (inactive)
- GI50 [8]: 27 µM (inactive)
- GI50 [9]: 6.1 µM (inactive)
- GI50 [10]: 52 µM (inactive)
- GI50 [11]: 10.8 µM (inactive)
- GI50 [12]: 2.18 µM (inactive)
- GI50 [13]: 5.83 µM (inactive)
- GI50 [14]: 22.4 µM (inactive)
- GI50 [15]: 21.8 µM (inactive)
- GI50 [16]: 3.81 µM (inactive)
- GI50 [17]: 23.6 µM (inactive)
- GI50 [18]: 25.1 µM (inactive)
- GI50 [19]: 31.4 µM (inactive)

SMILES: CO/N=C(\C)c1ccc(Nc2c3ccccc3nc3occc23)cc1
- GI50 [1]: 0.302 µM (active)
- GI50 [2]: 0.284 µM (active)
- GI50 [3]: 0.902 µM (active)
- GI50 [4]: 0.59 µM (active)
- GI50 [5]: 12.9 µM (inactive)
- GI50 [6]: 1.16 µM (inactive)
- GI50 [7]: 0.0373 µM (active)
- GI50 [8]: 0.429 µM (active)
- GI50 [9]: 0.374 µM (active)
- GI50 [10]: 2.42 µM (inactive)
- GI50 [11]: 0.38 µM (active)
- GI50 [12]: 0.0855 µM (active)
- GI50 [13]: < 0.0317 µM (active)
- GI50 [14]: 0.244 µM (active)
- GI50 [15]: 2.36 µM (inactive)
- GI50 [16]: 0.201 µM (active)
- GI50 [17]: 0.318 µM (active)
- GI50 [18]: 0.482 µM (active)
- GI50 [19]: 1.4 µM (inactive)

SMILES: N=C(N)N/N=C/c1nc2sccn2c1[N+](=O)[O-]
- GI50 [1]: 16.2 µM (inactive)
- GI50 [2]: 26.2 µM (inactive)
- GI50 [3]: 13.7 µM (inactive)
- GI50 [4]: 21.4 µM (inactive)
- GI50 [5]: 68.9 µM (inactive)
- GI50 [6]: 52.5 µM (inactive)
- GI50 [7]: 33.2 µM (inactive)
- GI50 [8]: 82.4 µM (inactive)
- GI50 [9]: 22.4 µM (inactive)
- GI50 [10]: 65.3 µM (inactive)
- GI50 [11]: 30.9 µM (inactive)
- GI50 [12]: 19.6 µM (inactive)
- GI50 [13]: 21.6 µM (inactive)
- GI50 [14]: 19 µM (inactive)
- GI50 [15]: 18.1 µM (inactive)
- GI50 [16]: 16.6 µM (inactive)
- GI50 [17]: > 100 µM (inactive)
- GI50 [18]: 24.7 µM (inactive)
- GI50 [19]: 37.5 µM (inactive)

SMILES: NC1=NC(NCC2(CO)CCC2)=CC(OCC2(CO)CCC2)N1 (centres undefined)
- GI50 [1]: > 100 µM (inactive)
- GI50 [2]: > 100 µM (inactive)
- GI50 [3]: > 100 µM (inactive)
- GI50 [4]: > 100 µM (inactive)
- GI50 [5]: > 100 µM (inactive)
- GI50 [6]: > 100 µM (inactive)
- GI50 [7]: 82.8 µM (inactive)
- GI50 [8]: > 100 µM (inactive)
- GI50 [9]: > 100 µM (inactive)
- GI50 [10]: > 100 µM (inactive)
- GI50 [11]: > 100 µM (inactive)
- GI50 [12]: > 100 µM (inactive)
- GI50 [13]: > 100 µM (inactive)
- GI50 [14]: > 100 µM (inactive)
- GI50 [15]: 26.2 µM (inactive)
- GI50 [16]: > 100 µM (inactive)
- GI50 [17]: > 100 µM (inactive)
- GI50 [18]: > 100 µM (inactive)
- GI50 [19]: > 100 µM (inactive)

SMILES: COc1cc(C2SCC(=O)N2c2ccccc2Cl)cc(OC)c1OC (centres undefined)
- GI50 [1]: > 100 µM (inactive)
- GI50 [2]: > 100 µM (inactive)
- GI50 [3]: > 100 µM (inactive)
- GI50 [4]: > 100 µM (inactive)
- GI50 [5]: > 100 µM (inactive)
- GI50 [6]: > 100 µM (inactive)
- GI50 [7]: 43.1 µM (inactive)
- GI50 [8]: 90.2 µM (inactive)
- GI50 [9]: > 100 µM (inactive)
- GI50 [10]: > 100 µM (inactive)
- GI50 [11]: > 100 µM (inactive)
- GI50 [12]: 19.4 µM (inactive)
- GI50 [13]: 65.8 µM (inactive)
- GI50 [14]: > 100 µM (inactive)
- GI50 [15]: > 100 µM (inactive)
- GI50 [16]: 47.2 µM (inactive)
- GI50 [17]: > 100 µM (inactive)
- GI50 [18]: > 100 µM (inactive)
- GI50 [19]: > 100 µM (inactive)

SMILES: O=C(/C=C/c1ccccc1Br)c1ccccc1
- GI50 [1]: 14.5 µM (inactive)
- GI50 [2]: 3.03 µM (inactive)
- GI50 [3]: 1.77 µM (inactive)
- GI50 [4]: 1.36 µM (inactive)
- GI50 [5]: 16.7 µM (inactive)
- GI50 [6]: 16.9 µM (inactive)
- GI50 [7]: 2.18 µM (inactive)
- GI50 [8]: 3.01 µM (inactive)
- GI50 [9]: 1.89 µM (inactive)
- GI50 [10]: 5.55 µM (inactive)
- GI50 [11]: 11.4 µM (inactive)
- GI50 [12]: 6.71 µM (inactive)
- GI50 [13]: 2.65 µM (inactive)
- GI50 [14]: 15.7 µM (inactive)
- GI50 [15]: 4.39 µM (inactive)
- GI50 [16]: 2.14 µM (inactive)
- GI50 [17]: 2.96 µM (inactive)
- GI50 [18]: 5.02 µM (inactive)
- GI50 [19]: 9.84 µM (inactive)
